From ChEMBL document CHEMBL1150739, “Plant antitumor agents, 26. Isolation, structure, and antitumor activity of alkaloids from Anopterus glandulosus” (1987) come the findings set out here.

In brackets after ≈: the same amount, converted by molar mass.

Format in all cases: functional
Assay [1] has as its system P388. The experiment in a line: In vivo antitumor activity against mouse P388 cells at 1.5 mg/kg relative to control.
For the next assay, the system named is KB. Kind of assay: Cytotoxicity against human KB cells. To be noted: read-out: ED50 (the source's name).
For assay [2], the system named is P388. The experiment in a line: In vivo antitumor activity against mouse P388 cells at 6 mg/kg relative to control.
Assay [3] deals with P388. The experiment in a line: In vivo antitumor activity against mouse P388 cells at 13 mg/kg relative to control.
For assay [4], the system named is P388. The experiment in a line: In vivo antitumor activity against mouse P388 cells at 3.5 mg/kg relative to control.
Assay [5] has as its system P388. Kind of assay: In vivo antitumor activity against mouse P388 cells at 4.4 mg/kg relative to control.

As to `C=C1C[C@]23[C@H]4[C@H]1[C@@H](OC(=O)/C(C)=C/C)[C@@H](OC(=O)c1ccccc1)[C@H]2[C@@]12C[C@@H](O)C[C@@](C)(CN(C)[C@H]41)[C@@]2(O)[C@@H](O)[C@@H]3O`, the T/C – broadly, the result in the treated group divided by that in the control group, in per cent – with P388 [1] is reported as 125%. Also, in the assay on KB, the EC50 worked out at 0.001 µg/mL (≈ 0.00173 µM).
In the assay on P388 [2], `C=C1C[C@@]23C[C@H](O)[C@]4(O)[C@@]5(C)C[C@H](O)C[C@@]46[C@@H]2[C@H](O)[C@H](OC(=O)/C(C)=C/C)[C@@H]1[C@H]3[C@H]6N(C)C5` had a T/C of 127%. The EC50 in the assay with KB came out at 1 µg/mL (≈ 2.18 µM).
For the molecule `C=C1C[C@@]23C[C@H](O)[C@]4(O)[C@@]5(C)C[C@H](O)C[C@@]46[C@@H]2[C@H](OC(=O)/C(C)=C/C)[C@H](OC(=O)/C(C)=C/C)[C@@H]1[C@H]3[C@H]6N(C)C5` [ANOPTERINE], the EC50 with KB stood at 0.05 µg/mL (≈ 0.0923 µM). Besides, the T/C in the assay on P388 [3] amounted to 122%.
The molecule `C=C1C[C@]23[C@H]4[C@H]1[C@@H](OC(=O)/C(C)=C/C)[C@@H](OC(=O)/C(C)=C/CO)[C@H]2[C@@]12C[C@@H](O)C[C@@](C)(CN(C)[C@H]41)[C@@]2(O)[C@@H](O)[C@@H]3O` returned a T/C with P388 [4] of 120%. For the same molecule, in the assay with KB, the EC50 was determined as 0.05 µg/mL (≈ 0.0872 µM).
As for `C=C1C[C@]23[C@H]4[C@H]1[C@@H](OC(=O)/C(C)=C/C)[C@@H](OC(=O)/C(C)=C/C)[C@H]2[C@@]12C[C@@H](O)C[C@@](C)(CN(C)[C@H]41)[C@@]2(O)[C@@H](O)[C@@H]3O`, the EC50 with KB is 0.001 µg/mL (≈ 0.00179 µM). The molecule further returned a T/C in the assay on P388 [5] of 140%.
